Residues, ends and D or L forms follow the SMILES beside them. *: point of attachment. Bz = O=C(c1ccccc1)*

As to `CCCCCCN(C)c1ccc(C=C2SC(=S)N(CC(=O)NS(C)(=O)=O)C2=O)cc1`, the melting point was in the range of 227 to 230 °C.

Molecule `CC(C)n1nc(-c2nc(C#N)c(C#N)nc2-c2ccccc2Br)ccc1=O` registered a melting point of 160 to 161 °C.

On to `CCOC(=O)C1=C(C)NC(C)=C(c2nnco2)C1c1cccc(Cl)c1Cl` (configuration not stated), for which the melting point is 187 to 189 °C.

The molecule `COC(=O)C(CCC#N)(CCC#N)C(=O)OC` gave a melting point of 143 °C.

Consider `O=C(Nc1cccnc1NCc1ccc(Cl)cc1)c1ccccc1[N+](=O)[O-]`, for which the melting point was 145 to 147 °C.

The molecule `O=C(O)CCc1c(C=C2C(=O)Nc3ccc(Br)cc32)[nH]c2c1CCCC2` returned a melting point of 286 to 289 °C.

Molecule `CCCc1nn(C)c2c(=O)[nH]c(-c3cc(-c4nccn4C)ccc3OCC)nc12` had a melting point of 199 to 202 °C.

Regarding `CNC(=S)N1CC(c2ccccc2)C(c2ccc(Cl)cc2)=N1` (configuration not stated), the melting point lay in the range of 181 to 183 °C.

The molecule `O=[N+]([O-])C=C1NCCN1Cc1ccc(F)nc1` came in with a melting point of 139 to 142 °C.

Take `Cn1c(=O)cc(CCc2cccc(Cl)c2)c2cc(C(N)(c3ccc(Cl)cc3)c3cccnc3)ccc21` (configuration not stated): the melting point was determined as 90 °C.

On to `CC(=O)Nc1ccc(-c2ccc(C(O)CCC(=O)O)cc2)cc1Br` (configuration not stated), for which the melting point fell in the range of 125 to 126 °C.

As to `O=C1CCCN1CCc1ccccc1`, the melting point is 50.5 to 52.5 °C.

For `CCc1cc(Oc2ccc(S(C)(=O)=O)nc2)cc2cc(C3=NCC(CC(=O)O)S3)[nH]c12` (configuration not stated), the melting point lay in the range of 230 to 232 °C.

As to `Nc1nc(Cl)c2c(n1)OCC2`, the melting point was in the range of 258 to 263 °C.

For the molecule `COC(=O)NNC(=S)Cc1ccc(OC)cc1`, the melting point lay in the range of 94.5 to 95 °C.

In turn, `O=C1CN(C(=O)OCc2ccccc2)CC(=O)O1` gave a melting point of 133 to 137 °C.

The molecule `CSc1cccc(NC(C)=N)c1` gave a melting point of 134 to 135 °C.

`C=CCOC(=O)NC(C)(C)c1ccc(-c2nc(Nc3ccc(CCn4ccnc4)cc3)ncc2Cl)cc1F` gave a melting point of 88 °C.

Regarding `NS(=O)(=O)c1ccc(N2CC(CO)OC2=O)cc1` (configuration not stated), the melting point was 154 to 156 °C.

`FC(F)(F)c1cccc(-c2ccnc3ncnn23)c1` came in with a melting point of 158 to 160 °C.

`Cn1cc(C(=O)O)c(=O)c2cc3cc(F)c(N4CCNC(c5ccco5)C4)cc3nc21` (racemic) showed a melting point of 258 to 260 °C.

With `Clc1ccccc1C=Nc1c2c(nc3ccccc13)CCCC2`, the melting point lay within 165 to 166 °C.

For `c1ccc([C@H]2OC2(c2ccccc2)c2ccccc2)cc1`, the melting point lay within 91 to 92 °C.

`COc1ccc(CSc2ncn(Cc3cc4c(cc3Cl)OCO4)c2C(=O)O)cc1` had a melting point of 195 °C.

As to `CCCCC(Cc1ccc(OCCCN(C)C(=O)c2ccc(-c3ccccn3)cc2)cc1)C(=O)O` (configuration not stated), the melting point is 110 to 112 °C.

`COc1ccccc1OCC1SCCN1C(=O)CI` (configuration not stated): the melting point fell in the range of 81 to 83 °C.

As to `COC(=O)c1ccc(CC(C)NCC(O)c2ccc(O)c(CO)c2)c(OC)c1` (configuration not stated), the melting point lay within 96 to 105 °C.

Take `O=C(OCc1cc(COC(=O)c2ccc(O)c(F)c2)cc(COC(=O)c2ccc(O)c(F)c2)c1)c1ccc(O)c(F)c1`: the melting point was 88 °C.

The molecule `Cc1nnc(-c2ccc3occ(-c4ccc(CS(C)(=O)=O)cc4)c3c2)o1` had a melting point of 250 to 251 °C.

With `Cc1ccc(C(=O)NC2CCN(CCCCl)CC2)cc1`, the melting point lay within 150 to 152 °C.

Regarding `O=C(Nc1cccc(C(F)(F)F)c1)c1cccc2cc(OS(=O)(=O)C(F)(F)F)ccc12`, the melting point was in the range of 177 to 178 °C.

Turning to `COc1ccc(C(=O)c2c(Cl)cc(Cl)cc2Cl)cc1Cc1ccc(=O)n(C)n1`, the melting point amounted to 150 °C.

Regarding `CCNC(=O)[C@H](C)NC(=O)[C@H](C)NC(=O)c1ccccc1` (Bz-Ala-Ala-NHEt), the melting point was 237 to 239 °C.

With `CC(=O)Nc1ccc2c(c1)N1CCN=C1S2`, the melting point was 268 °C.

On to `Cc1c(OCc2ccc(CC(C)C)cc2)ccc(C(=O)Nc2ccccc2OCCCC(=O)O)c1C`, for which the melting point was 143 °C.

On to `CC(C)(C)N1C(=O)c2cc([N+](=O)[O-])cnc2C1=O`, for which the melting point was in the range of 170 to 173 °C.

`CC(OCc1cc2nc(Cl)ccc2n1S(=O)(=O)c1ccc2nc(N)sc2c1)C(=O)O` (configuration not stated): the melting point is 218 to 220 °C.

The molecule `CNS(=O)(=O)Cc1ccc(C)cc1` returned a melting point of 49 to 52 °C.

With `CCOC(=O)C=CC(=O)c1ccc(-c2ccc(F)cc2)cc1`, the melting point lay in the range of 115 to 117 °C.

Turning to `CN1C(=O)CN=C(c2ccccc2)c2cc(NO)ccc21`, the melting point was in the range of 211 to 213 °C.

`CCC(CC)Nc1cc(C(=O)OC)ccc1N1C(=O)CCC1(CO)CO` yielded a melting point of 183 to 185 °C.

For `CC(Oc1ccc(-c2ccc(-c3c(Cc4ccccc4)oc4ccccc34)cc2)cc1)C(=O)O` (configuration not stated), the melting point was in the range of 112 to 114 °C.

The molecule `NCc1cc(Cl)ccc1OCC(N)=O` had a melting point of 135 to 137 °C.

`CCOC(=O)C1=C(COCCCc2nc3ccccc3n2C)NC(C)=C(C(=O)NC(C)(C)C)C1c1ccccc1Cl` (configuration not stated) displayed a melting point of 202 °C.

On to `CCc1cccc(CC(=O)O)c1OCCCc1cn(-c2ccc(C(F)(F)F)nn2)nc1C(C)C`, for which the melting point was 126 to 127 °C.

Turning to `Cc1cc(C(=O)N2CCCC(C)C2)ccc1[N+](=O)[O-]` (configuration not stated), the melting point was 82 to 82.8 °C.

For `CS(=O)(=O)c1ccc(-c2cc(C(F)(F)F)cnc2C(=O)c2ccccc2)cc1`, the melting point was 141 to 142 °C.

The molecule `Cc1c(C)c2c(c(C)c1N)CC(C)(CN1CCN(C(=O)CC(c3ccccc3)c3ccccc3)CC1)O2` (configuration not stated) showed a melting point of 77 to 78 °C.

Consider `CC(C)c1ccc(S(=O)(=O)n2c(Cc3ccc(C(=O)O)s3)cc3cc(C(F)(F)F)ccc32)cc1`, for which the melting point is 199 to 216 °C.

Molecule `CC(C)Oc1cc(CCCOc2ccc3ccccc3c2CC(=O)O)n(Cc2ccc(Cl)cc2Cl)n1` returned a melting point of 120 to 122 °C.

Molecule `O=C1c2ccc(Cl)cc2OCN1CCO[N+](=O)[O-]` had a melting point of 86 to 88 °C.

Molecule `C=CCN(CC=C)c1nc(NC(=O)OCC)n2oc(=O)nc2n1` showed a melting point of 172 to 174 °C.

In turn, `CCCOc1ccc(Br)cc1-c1nc2c(C)cccc2c(=O)[nH]1` registered a melting point of 179 to 180 °C.

As to `CCOC(=O)[C@H]1O[C@@H]1C(=O)N[C@H](COCC(C)C)C(C)C`, the melting point lay within 40.5 to 45 °C.

Molecule `CCSc1cc2c(cc1F)C(=O)C(=O)N2` had a melting point of 215 °C.

In the case of `CCCCCCCCC(CCC)CC(=O)Nc1ccccc1` (configuration not stated), the melting point was in the range of 98 to 100 °C.

In the case of `Oc1cccc(Nc2nnc(Cc3ccncc3)c3ccccc23)c1`, the melting point was in the range of 217 to 219 °C.

`CCOC(=O)c1nc(NC)sc1-c1cn2ccccc2n1` registered a melting point of 197 to 200 °C.

Consider `CC[C@H](C)C(OCc1ccccc1)[C@H]1[C@H]([N+](=O)[O-])[C@H](c2ccsc2)N[C@@H]1C(=O)NCCC(=O)O` (some centres not stated), for which the melting point fell in the range of 145 to 146 °C.

On to `Nc1cc(-c2ccccc2)cc2nc(-c3ccccc3)nn12`, for which the melting point lay in the range of 214 to 216 °C.

Molecule `CCOc1ccc2c(OC(=O)C(F)(F)F)c3cc4ccccc4cc3c(OC(=O)C(F)(F)F)c2c1` returned a melting point of 165 to 170 °C.

Take `CC(C)Cc1nn(C)c(=O)c2cc(Cc3c(F)cccc3Cl)sc12`: the melting point lay in the range of 85 to 86 °C.

As to `Cc1cc(O)n2nc(CBr)nc2n1`, the melting point lay in the range of 217 to 222 °C.

Molecule `CN(Cc1ccc(C2=NCCN2C(=O)OC(C)(C)C)cc1)C(=O)/C=C/CNCS(=O)(=O)c1ccc([N+](=O)[O-])cc1[N+](=O)[O-]` registered a melting point of 78 °C.

For the molecule `COc1ccccc1Sc1c(O)nc(C)[nH]c1=O`, the melting point was found to be 290 °C.

With `O=C(O)c1ccc(-c2ccc3cc(O)c(C45CC6CC(CC(C6)C4)C5)cc3c2)cc1`, the melting point was 295 to 300 °C.

As to `CSc1[nH]c2cccc3c2c1CC1C3CC(C)CN1C` (configuration not stated), the melting point fell in the range of 201 to 202 °C.

In turn, `O=C(OC(Cc1ccccc1)C(=O)O)c1ccccc1` (configuration not stated) showed a melting point of 113 °C.

Take `O=C(N[C@H]1CC[C@H](CCN2CCN(c3nccc4c3OCC4)CC2)CC1)c1ccc(C(F)(F)F)cc1`: the melting point is 242 °C.

As for `CCCN(CCC)C(=O)Cc1ccc(OCc2ccccc2)c([N+](=O)[O-])c1`, the melting point is 67 to 68 °C.

Turning to `CC(C)OC(=O)C1=C2SCC(=CC(=O)Sc3ccccc3)N2CC1`, the melting point was in the range of 216 to 220 °C.

On to `CC(C)(C)NCC(O)COc1ccc(N)cc1` (configuration not stated), for which the melting point is 125 to 127 °C.

`NC(=O)[C@@H]1[C@H](Nc2ccnc3[nH]c(-c4cccc(CN5CCOCC5)c4)nc23)[C@H]2C=C[C@@H]1C2` came in with a melting point of 240 to 244 °C.

On to `CN(C)c1ncc(C(=O)NCc2ccccc2)c(S)n1`, for which the melting point was 175 to 178 °C.

Molecule `CC(=O)Nc1c(CC(=O)O)cccc1Oc1ccccc1` had a melting point of 155 to 156 °C.

In turn, `COc1cc2nc3ccccc3sc-2c(OC)c1=O` displayed a melting point of 193 °C.

Regarding `Cc1ccc(-c2cc(Cl)cc3c2NC(CN)CO3)c(C(F)(F)F)c1` (configuration not stated), the melting point was found to be 98 °C.

With `CCCc1ccc(Oc2ccc3c(c2)C=C(C(=O)O)CCS3(=O)=O)cc1`, the melting point was in the range of 147 to 149 °C.

In the case of `CC(=O)SC(CC(=O)c1ccc(Cl)c(Cl)c1)C(=O)O` (configuration not stated), the melting point was in the range of 102 to 105 °C.

Turning to `CC[C@H](C)[C@H](OCc1cccc(F)c1F)[C@H]1[C@H]([N+](=O)[O-])[C@H](c2ccccc2)N[C@@H]1C(=O)NCC(=O)O`, the melting point lay in the range of 137 to 138 °C.

On to `COC(=O)CCc1cc2cc(Cl)ccc2n1S(=O)(=O)c1ccc(C#N)cc1`, for which the melting point was in the range of 155 to 159 °C.

On to `N#Cc1cc(C#N)cc(Oc2c(C3CC3)n[nH]c2C2CC2)c1`, for which the melting point lay within 168 to 170 °C.

`CCOC(=O)C(Cc1ccc(O)cc1)c1cc2cc(C#N)ccc2s1` (configuration not stated) displayed a melting point of 146 to 147 °C.

Take `Nc1ccc(C23CC2C(=O)N(CC2CCCCC2)C3=O)cc1` (configuration not stated): the melting point lay within 125 to 126 °C.

`COc1ccc(S(=O)(=O)C2(C(=O)NO)CCN(C(C)C)CC2)cc1` displayed a melting point of 75 °C.

Take `O=Cc1c[nH]c2ccc(-c3ccc4[nH]cnc4c3)cc12`: the melting point is more than 280 °C.

The molecule `Cc1ccc(S(=O)(=O)C2=CC3C=CC2N3C(=O)OC(C)(C)C)cc1` (configuration not stated) yielded a melting point of 94 to 99 °C.
